{"source": "patent US4431807A", "about": "“4-Methyl-5-(unsubstituted and substituted phenoxy)-6-methoxy-8-(aminoalkylamino)quinolines” (priority 1981, dated 1984)", "key": {"[1]": {"experiment": "Acute oral toxicity, mice"}, "P. cynomolgi [2]": {"test_system": "P. cynomolgi", "experiment": "SEATO suppressive test, P. cynomolgi, rhesus monkey (parasitized blood inoculation, no chloroquine)", "type": "in vivo, P. cynomolgi in rhesus monkey", "description": "Equally significant is the suppressive activity comparison (Part A-2) in the Rhesus monkey. This test differs from the SEATO radical curative test primarily in that parasitemia is induced by intravenous inoculation of parasitized blood (rather than sporozoites) and that chloroquine is not co-administered with the test drug. […] On the other hand, compound 1 is curative at doses down to 1.0 mg/kg/day."}, "[3]": {"experiment": "Acute oral toxicity, rats"}, "Plasmodium berghei": {"test_system": "Plasmodium berghei", "experiment": "Blood schizonticidal (suppressive) test, Rane mouse test, P. berghei", "type": "in vivo, Plasmodium berghei KBG 173 in ICR/HA Swiss mice", "source_text": "Blood Schizonticidal Test (Mouse), University of Miami, Rane (Suppressive)\nThis system is based on comparisons of responses to test compounds by Plasmodium berghei KBG 173 malaria in mice as expressed in mean survival times and the mean survival times of untreated controls. Thus, compounds noted as active produce increases in the survival times of the treated animals that are significant when compared with the survival times of untreated controls. Since an established disease is less sensitive to treatment than a disease in the early stages of development, treatment is withheld until the parasitemia is relatively high in order to insure a more reliable assay of activity and the selection of appropriate compounds for intensive preclinical studies.\nUtilizing young ICR/HA Swiss mice and a standard inoculum of Plasmodium berghei KBG 173, it is possible to produce a uniform disease fatal to 100% of untreated animals within 6 to 8 days with a mean survival time of 6.2 days. Test animals weigh from 18 to 22 grams but weight variations in any given experimental or control group are confined to 2-3 grams. All animals in any given test are approximately of the same age. Animals on test are housed in metal-topped plastic cages, given a standard laboratory diet and water ad libitum.\nTest animals receive an intraperitoneal injection of 0.5 ml of 1:100 dilution of heparinized heart's blood with a minimum of 90% parasitized cells (4×10^7 cells), drawn from donor mice infected one week earlier with Plasmodium berghei. The donor stran is maintained by weekly passages in separate groups of mice inoculated with a 0.5 ml of 1:500 dilution of heparinized heart's blood.\nTest compounds are administered after dissolution or suspension in peanut oil. A single dose is given subcutaneously 72 hours after the mice are infected with Plasmodium berghei. At this time a 10-15 percent parasitemia has developed; the disease is well established but has not produced sufficient debility to alter the response of the host to toxic effects of the drug on test. Since treatment is withheld for three days to permit the infection to become well established and death occurs in untreated controls within 6-8 days, it is believed that this system presents a candidate compound with the maximum challenge. In order to check factors such as changes in the infectivity of Plasmodium berghei or in the susceptibility of the host or to detect technical errors, a group of infected animals treated with pyrimethamine at dose levels producing definite increases in survival time is included as a positive control in every experiment.\nIn each experiment test compounds are administered in graded doses. […] However, if an active drug is toxic for the host, its toxicity may become a limiting factor; continued increases in dose levels also increase the toxic effects and may result in the diminution of survival times. Deaths prior to the sixth day, when untreated controls begin to die, are regarded as non-parasitic and become the basis for toxicity evaluations. Treated animals are kept under observation for 60 days. Survivors at the end of this period of time are considered as cured.\nAn increase of 100% in mean survival time is considered the minimum effective response for a candidate compound. In calculating mean survival time, toxic deaths and 60 day survivors are not included.\nThe antimalarial activity data acquired by the two test procedures described above are listed in Tables 2 and 3 for the compounds of this invention. In Table 4, the most promising compound of the series, compound 1, is compared directly with primaquine together with some additional test data for compound 1 compared to primaquine. In all the work reported herein primaquine is used in the form of the diphosphate salt. The test data are expressed in the form of the number of cures at a given dose level. […]"}, "P. cynomolgi [4]": {"test_system": "P. cynomolgi", "experiment": "Combination drug therapy including chloroquine as suppressive adjuvant, radical curative studies", "type": "in vivo, P. cynomolgi in rhesus monkeys", "conditions": "for Activity at 3.5 mg/kg (×1): primaquine with chloroquine, compound 1 without chloroquine; for Fully curative dose level: single dose, with chloroquine"}, "[5]": {"conditions": "160 mg/kg × 1, s.c., five mice, Table III"}, "[6]": {"conditions": "320 mg/kg × 1, s.c., five mice, Table III"}, "[7]": {"conditions": "640 mg/kg × 1, s.c., five mice, Table III"}, "[8]": {"conditions": "0.875 mg/kg base × 1, oral, without chloroquine"}, "[9]": {"conditions": "1.75 mg/kg base × 1, oral, plus chloroquine"}, "[10]": {"conditions": "3.5 mg/kg base × 1, oral, without chloroquine"}, "[11]": {"conditions": "14 mg/kg base × 1, oral, without chloroquine"}, "[12]": {"conditions": "3.5 mg/kg base × 1, oral, plus chloroquine"}, "[13]": {"conditions": "7 mg/kg base × 1, oral, plus chloroquine"}}, "data": [{"smiles": "COc1cc(NC(C)CCCN)c2nccc(C)c2c1Oc1cccc(C(F)(F)F)c1.O=C(O)CCC(=O)O", "note": "(stereo not shown) [Compound 1, 8-(4-Amino-1-methylbutylamino)-6-methoxy-4-methyl-5-(3-trifluoromethylphenoxy)quinoline Succinate]", "values": [{"measurement": "LD50 ratio Compound 1/Primaquine", "setting": "[1]; mice, male", "value": 1.59}, {"measurement": "minimal effective dose", "setting": "P. cynomolgi [2]; Plasmodium cynomolgi, in Macaca mulatta, po, curative at doses down to, read-out: Lowest curative dose, suppressive test in rhesus", "value": 1, "unit": "mg/kg/day"}, {"measurement": "LD50 ratio Compound 1/Primaquine", "setting": "[3]; rats, female", "value": 2.76}, {"measurement": "LD50 ratio Compound 1/Primaquine", "setting": "[3]; rats, male", "value": 1.46}, {"measurement": "Extension of survival", "setting": "Plasmodium berghei; 5 mg/kg salt, s.c., Table IV A-1", "value": 7, "unit": "days"}, {"measurement": "Cures (60 days survival)", "setting": "Plasmodium berghei; 5 mg/kg × 1, s.c., five mice, Table III", "value": 1, "unit": "C"}, {"measurement": "Cures (60 days survival)", "setting": "Plasmodium berghei; 10 mg/kg × 1, s.c., five mice, Table III", "value": 3, "unit": "C"}, {"measurement": "Cures (60 days survival)", "setting": "Plasmodium berghei; 20 mg/kg × 1, s.c., five mice, Table III", "value": 5, "unit": "C"}, {"measurement": "Cures (60 days survival)", "setting": "Plasmodium berghei; 40 mg/kg × 1, s.c., five mice, Table III", "value": 5, "unit": "C"}, {"measurement": "Cures (60 days survival)", "setting": "Plasmodium berghei; 80 mg/kg × 1, s.c., five mice, Table III", "value": 5, "unit": "C"}, {"measurement": "Cures (60 days survival)", "setting": "Plasmodium berghei; [5]", "value": 5, "unit": "C"}, {"measurement": "Cures (60 days survival)", "setting": "Plasmodium berghei; [6]", "value": 5, "unit": "C"}, {"measurement": "Toxic deaths", "setting": "Plasmodium berghei; 640 mg/kg salt, s.c., Table IV A-1", "value": 4, "unit": "T"}, {"measurement": "Cures (60 days survival)", "setting": "Plasmodium berghei; [7]", "value": 1, "unit": "C"}, {"measurement": "Toxic", "setting": "Plasmodium berghei; [7]", "value": 4, "unit": "T"}, {"measurement": "minimal effective dose", "setting": "Plasmodium berghei; Plasmodium berghei, sc, single dose, read-out: Curative dose, suppressive test", "value": 10, "unit": "mg/kg"}, {"measurement": "Relapse", "setting": "P. cynomolgi [4]; 0.4375 mg/kg base × 1, oral, plus chloroquine", "value": 4, "unit": "R"}, {"measurement": "Relapse", "setting": "P. cynomolgi [4]; 0.4375 mg/kg base × 1, oral, without chloroquine", "value": 4, "unit": "R"}, {"measurement": "Cure", "setting": "P. cynomolgi [4]; 0.875 mg/kg base × 1, oral, plus chloroquine", "value": 4, "unit": "C"}, {"measurement": "Relapse", "setting": "P. cynomolgi [4]; [8]", "value": 1, "unit": "R"}, {"measurement": "Suppressive failure", "setting": "P. cynomolgi [4]; [8]", "value": 3, "unit": "SF"}, {"measurement": "Cure", "setting": "P. cynomolgi [4]; [9]", "value": 2, "unit": "C"}, {"measurement": "Suppressive failure", "setting": "P. cynomolgi [4]; 1.75 mg/kg base × 1, oral, without chloroquine", "value": 4, "unit": "SF"}, {"measurement": "Cure", "setting": "P. cynomolgi [4]; [10]", "value": 1, "unit": "C"}, {"measurement": "Suppressive failure", "setting": "P. cynomolgi [4]; [10]", "value": 1, "unit": "SF"}, {"measurement": "Cure", "setting": "P. cynomolgi [4]; 7 mg/kg base × 1, oral, without chloroquine", "value": 2, "unit": "C"}, {"measurement": "Cure", "setting": "P. cynomolgi [4]; [11]", "value": 1, "unit": "C"}, {"measurement": "Suppressive failure", "setting": "P. cynomolgi [4]; [11]", "value": 1, "unit": "SF"}, {"measurement": "Activity at 3.5 mg/kg (×1)", "setting": "P. cynomolgi [4]", "value": "equally active"}, {"measurement": "Fully curative dose level", "setting": "P. cynomolgi [4]", "value": 0.875, "unit": "mg/kg"}, {"measurement": "Molar Primaquine Index", "setting": "P. cynomolgi [4]; with chloroquine co-administration", "value": 19}]}, {"smiles": "COc1cc(NC(C)CCCN)c2ncccc2c1", "note": "(stereo not shown) [Primaquine Diphosphate, 8-((4-amino-1-methylbutyl)amino)-6-methoxy-quinoline, reference compound]", "values": [{"measurement": "LD50", "setting": "[1]; mouse, in vivo, po", "value": 148, "unit": "mg/kg"}, {"measurement": "Cures, suppressive test in rhesus", "setting": "P. cynomolgi [2]; all doses, oral, × 7 days", "value": "No Cures"}, {"measurement": "Suppressive activity in the rhesus", "setting": "P. cynomolgi [2]; in words", "value": "failed to clear the blood schizonts completely"}, {"measurement": "LD50", "setting": "[3]; rat, in vivo, po", "value": 224, "unit": "mg/kg"}, {"measurement": "Acute Oral LD50", "setting": "[3]; rats, male", "value": 177, "unit": "mg/kg"}, {"measurement": "Extension of survival relative to controls", "setting": "Plasmodium berghei; 80 mg/kg × 1, s.c., Table III", "value": 9, "unit": "days"}, {"measurement": "Extension of survival", "setting": "Plasmodium berghei; 160 mg/kg salt, s.c., Table IV A-1", "value": 9, "unit": "days"}, {"measurement": "Extension of survival relative to controls", "setting": "Plasmodium berghei; 160 mg/kg × 1, s.c., Table III", "value": 9, "unit": "days"}, {"measurement": "Suppressive activity (active/inactive)", "setting": "Plasmodium berghei; [5]", "value": "A (Active, 7 Days or more estension of survival relative to controls.)"}, {"measurement": "Toxic", "setting": "Plasmodium berghei; [5]", "value": 2, "unit": "T"}, {"measurement": "Toxic", "setting": "Plasmodium berghei; [6]", "value": 5, "unit": "T"}, {"measurement": "Toxic", "setting": "Plasmodium berghei; [7]", "value": 5, "unit": "T"}, {"measurement": "Cures, Rane mouse test", "setting": "Plasmodium berghei; all doses, s.c., Table IV A-1", "value": "No Cures"}, {"measurement": "Toxicity and curative activity, Rane mouse test", "setting": "Plasmodium berghei; any dose level", "value": "toxic and non-curative at any dose level"}, {"measurement": "Relapse", "setting": "P. cynomolgi [4]; [9]", "value": 2, "unit": "R"}, {"measurement": "Cure", "setting": "P. cynomolgi [4]; [12]", "value": 2, "unit": "C"}, {"measurement": "Relapse", "setting": "P. cynomolgi [4]; [12]", "value": 1, "unit": "R"}, {"measurement": "Suppressive failure", "setting": "P. cynomolgi [4]; [12]", "value": 1, "unit": "SF"}, {"measurement": "Cure", "setting": "P. cynomolgi [4]; [13]", "value": 2, "unit": "C"}, {"measurement": "Relapse", "setting": "P. cynomolgi [4]; [13]", "value": 1, "unit": "R"}, {"measurement": "Suppressive failure", "setting": "P. cynomolgi [4]; [13]", "value": 1, "unit": "SF"}, {"measurement": "Cure", "setting": "P. cynomolgi [4]; 14 mg/kg base × 1, oral, plus chloroquine", "value": 2, "unit": "C"}, {"measurement": "Activity at 3.5 mg/kg (×1)", "setting": "P. cynomolgi [4]", "value": "effective although a relapse was observed in one of the four animals"}, {"measurement": "Fully curative dose level", "setting": "P. cynomolgi [4]", "value": 14, "unit": "mg/kg"}]}]}
